Experimental data published in patent US20230255955A1, “AMELIORATING AGENT OR PROPHYLACTIC AGENT FOR MUSCLE WEAKNESS SYMPTOM IN DISEASE OR SYNDROME ASSOCIATED WITH METABOLIC DISORDER” (Toray Industries, Inc., priority 2020, published 2023).
Where a name gives a salt, the structure may show the parent alone.

Tests used:
cancer cachexia patients = settings: cited from earlier work
A549 cells = assay: Tumor volume in malignant tumor model (A549 cells transplanted to nude mice); format: in vivo, mouse; settings: oral, every day for 28 days, 0.125 mg/kg and 0.25 mg/kg (both doses); tumor volume on 28th day; vs distilled water administered group
Method: (§1) On malignant tumor model animals obtained by transplanting A549 cells, adenocarcinomic human alveolar basal epithelial cells, to nude mice, an ameliorating action on a muscle weakness by administering (−)-17-(cyclopropylmethyl)-3,14β-dihydroxy-4,5α-epoxy-6β-[N-methyl-trans-3-(3-furyl)acrylamide]morphinan hydrochloride (hereinafter, compound 1) produced in accordance with International Publication No. WO 93/015081 was evaluated. […] For this reason, an evaluation of an ameliorating effect and a prophylactic effect on the muscle weakness symptom is considered to be possible.
(§2) A549 cell subculture was carried out using 10% FBS-containing RPMI 1640 medium. For an evaluation of drug efficacy, 7-week old female BALB/C slc/nu/nu mice (Japan SLC, Inc.) were purchased, acclimated for 1 week and then used. The malignant tumor model animal was created as follows. […] The tumor volume was determined by measuring a tumor diameter using a digital vernier caliper by the following calculating formula. […]
(§3) 43rd to 70th days from cell transplantation, compound 1 was orally administered every day to the malignant tumor model animals for 28 days. […] Using a grip test activity meter (Muromachi Kikai Co., Ltd.), a muscle strength was evaluated by measuring a gripping force of the forelimb on 28th day after starting administration of compound 1 (last day of the administration). […]

[1] = system: malignant tumor model animals obtained by transplanting A549 cells to nude mice; assay: Gripping force of the forelimb (grip test activity meter) in malignant tumor model; format: in vivo, mouse; settings: oral, every day for 28 days, 0.125 mg/kg and 0.25 mg/kg (both doses), 28th day
Method: as §1, §2, §3

SAMP8 mice = assay: Gripping force of the forelimb (grip test activity meter) in senescence-accelerated model; format: in vivo, mouse; settings: oral, every day for 28 days, 0.125 mg/kg and 0.25 mg/kg (both doses), 28th day, vs distilled water administered group, Williams' test P<0.05
Method: as §1, with “senescence-accelerated models, SAMP8” for “malignant tumor model animals obtained by transplanting A549 cells, adenocarcinomic human alveolar basal epithelial cells, to nude”, “(compound” for “(hereinafter, compound”
For the evaluation of drug efficacy, 7-week old male SAMP8/TaSlc mice (Japan SLC, Inc.) were purchased, then kept for 9 months and used for the test. For the total of 3 days from 3 days to 1 day before administration of the test substance, a gripping force of the forelimb was measured using a grip test activity meter, an average value of the 3 days was calculated, and then the mice were grouped in such a way that the average of muscle strengths in each group was equal. To clarify that the model is a muscle weakness model, a control of a senescence-accelerated model animal was set. […]
Compound 1 was orally administered to SAMP8 mice every day for 28 days. […] Using a grip test activity meter, the muscle strength was evaluated by measuring a gripping force of the forelimb on 28th day after starting administration of compound 1 (last day of the administration). […]

C[C@](O)(COc1ccc(C#N)cc1)C(=O)Nc1ccc(C#N)c(C(F)(F)F)c1 [enobosarm]
ameliorating action on a muscle weakness symptom (physical function) (cancer cachexia patients): the effect thereof is not acknowledged | lean body mass (cancer cachexia patients): increases a lean body mass

CN(C(=O)/C=C/c1ccoc1)[C@@H]1CC[C@@]2(O)[C@H]3Cc4ccc(O)c5c4[C@@]2(CCN3CC2CC2)[C@H]1O5 [compound 1, (−)-17-(cyclopropylmethyl)-3,14β-dihydroxy-4,5α-epoxy-6β-[N-methyl-trans-3-(3-furyl)acrylamide]morphinan hydrochloride]
suppressing action on the tumor volume increase (A549 cells): did not show any suppressing action on the tumor volume increase | gripping force (muscle strength) compared with the model control group [1]: ameliorated to the extent that is equal to the gripping force (muscle strength) of the model control group | increasing action on the gripping force (muscle strength) ([1]; vs distilled water administered group, Dunnett's test P<0.05): statistically remarkable increasing action on the gripping force (muscle strength) | increasing action on the gripping force (muscle strength) (SAMP8 mice): statistically remarkable increasing action on the gripping force (muscle strength)

CN(C)N(C)C(=O)[C@@]1(Cc2ccccc2)CCCN(C(=O)[C@@H](Cc2c[nH]c3ccccc23)NC(=O)C(C)(C)N)C1 [Anamorelin]
ameliorating action on a muscle weakness symptom (physical function) (cancer cachexia patients): does not show an ameliorating action on a muscle weakness symptom | lean body mass (cancer cachexia patients): increases a lean body mass
